ChEMBL document CHEMBL2034878, “Chiral resolution, absolute configuration assignment and biological activity of racemic diarylpyrimidine CH(OH)-DAPY as potent nonnucleoside HIV-1 reverse transcriptase inhibitors” (Eur J Med Chem, 2012)

Key:
[1] = tested on: Human immunodeficiency virus 2; assay: Antiviral activity against HIV2 ROD […] infected in MT4 cells assessed as inhibition of virus-induced cytopathic effect after 5 days by MTT assay; type: functional, organism-based; details: Human immunodeficiency virus 2, ISOLATE ROD, MT4, 120 h
[2] = Selectivity index ratio of CC50 for human MT4 cells to EC50 for HIV1 3B; type: toxicity, cell-based; details: read-out: Ratio CC50/EC50
[3] = Cytotoxicity against human MT4 cells after 5 days by MTT assay; type: cell-based
[4] = tested on: Human immunodeficiency virus 1; assay: Antiviral activity against HIV1 RES056 harboring K103N/Y181C RT mutant infected in MT4 cells assessed as inhibition of virus-induced cytopathic effect after 5 days by MTT assay; type: functional, organism-based; details: Human immunodeficiency virus 1, RES056, MT4, 120 h
[5] = tested on: Human immunodeficiency virus 1; assay: Antiviral activity against HIV1 3B harboring wild type RT infected in MT4 cells assessed as inhibition of virus-induced cytopathic effect after 5 days by MTT assay; type: functional, organism-based; details: Human immunodeficiency virus 1, 3B, MT4, 120 h
[6] = target: Human immunodeficiency virus type 1 reverse transcriptase (Human immunodeficiency virus 1, UniProt Q72547); assay: Inhibition of HIV1 wildtype reverse transcriptase using poly(rA)/oligo(dT)15 as template by colometric streptavidin alkaline phosphate reporter assay

Row | SMILES | EC50 [1] | selectivity ratio [2] | CC50 at 120 h [3] | EC50 [4] | EC50 [5] | IC50 [6]
1 | Cc1cn([C@H]2C[C@H](N=[N+]=[N-])[C@@H](CO)O2)c(=O)[nH]c1=O [ZIDOVUDINE] | 0.007 µM | ≥ 6360 | ≥ 46 µM |  |  | 
2 | O=C1Nc2ccc(Cl)cc2[C@@](C#CC2CC2)(C(F)(F)F)O1 [EFAVIRENZ] |  |  | > 6.3 µM | 0.44 µM |  | 
3 | N#Cc1ccc(Nc2nccc([C@@H](O)c3ccccc3Cl)n2)cc1 | 11 µM | 373 | 25 µM | 8.8 µM | 0.065 µM | 
4 | N#Cc1ccc(Nc2nccc(C(O)c3ccccc3Cl)n2)cc1 (racemic) | 7.6 µM | 3230 | 29 µM | 9.4 µM |  | 0.45 µM
5 | Cc1cc(C#N)cc(C)c1Oc1nc(Nc2ccc(C#N)cc2)nc(N)c1Br [ETRAVIRINE] | > 28 µM |  | 28 µM |  | 0.002 µM | 
6 | N#Cc1ccc(Nc2nccc([C@H](O)c3ccccc3Cl)n2)cc1 | > 36 µM | 6800 | 36 µM | > 36 µM | 0.005 µM | 
7 | CC(C)Nc1cccnc1N1CCN(C(=O)c2cc3cc(NS(C)(=O)=O)ccc3[nH]2)CC1 [DELAVIRDINE] |  | > 274 | > 4.4 µM | > 4.39 µM |  | 
8 | Cc1ccnc2c1NC(=O)c1cccnc1N2C1CC1 [NEVIRAPINE] | > 15 µM |  | > 15 µM |  |  | 
